{"source": "patent US20210402211A1", "about": "“LIGHT-HYDROGEN THERAPY INCLUDING LIGHTING MODULE, LIGHTING APPARATUS, AND LIGHTING METHOD FOR PARKINSON'S DISEASE PATIENTS” (priority 2020, published 2021)", "system": "PD patients", "conditions": "without light therapy, in a short time"}
{"smiles": "[HH]", "note": "[hydrogen, Molecular hydrogen]", "values": [{"measurement": "effectiveness of hydrogen therapy alone", "value": "not that effective"}]}
